Reference: patent US20140079632A1, “ACTIVITY-BASED PROBES FOR THE UROKINASE P[…]” (UNIVERSITEIT ANTWERPEN, priority 2011, published 2014)

Columns and labels:
Assay type in all cases: biochemical
[1] = target: T1, uPA (Homo sapiens, UniProt P00749); assay: uPA inhibition: in vitro evaluation, IC50 with chromogenic substrate Biophen CS-61(44); details: 15 min preincubation at 37° C.; Tris buffer pH 8.8; 250 μM substrate
T1 construct: purchased Nodia
Protocol: Enzymatic activity was measured at 37° C. in a Spectramax 340 (Molecular Devices) microtiter plate reader using the chromogenic substrate Biophen CS-61(44) (LpyroGlu-Gly L-Arg-p-NA.HCl), with a Km of 80 μM.
(§1) The substrate and human enzyme were obtained from Nodia. The reaction was monitored at 405 nm, and the initial rate was determined between 0 and 0.25 absorbance units in 20 min. The reaction mixture contained 250 μM substrate and approximately 1 mU of enzyme in 145 μL of buffer in a final volume of 200 μL. A 50 mM Tris buffer, pH 8.8, was used. From each inhibitor concentration, 5 μL was added, obtaining a final concentration from 0 to 250 μM in a total volume of 0.2 mL. Activity measurements were routinely performed in duplicate. […] IC50 values were obtained by fitting the data with the four-parameter logistics equation using Grafit 5.
where s=slope factor, v=rate, I0=inhibitor concentration, and range=the fitted uninhibited value minus the background. The equation assumes the y falls with increasing x.
(§2) Inhibitor stock solutions were prepared in DMSO and stored at −20° C. Because the compounds described in this paper completely inactivate uPA following pseudofirst-order kinetics, the IC50 value is inversely correlated with the second-order rate constant of inactivation. For a simple pseudofirst-order inactivation process, the activity after incubation with inhibitor (vi) varies with the inhibitor concentration (i), as described in the following equation: […]

[2] = target: T1, uPA; assay: uPA inactivation kinetics from progress curves (kobs versus inhibitor concentration, kapp); details: 250 μM substrate, 37° C.
Protocol: as §2
where vo is the activity in absence of inhibitor, k is the second-order rate constant of inactivation, and t is the time. The inactivation rate constant was determined from the time course of inhibition.
The inhibitor was mixed with the substrate (250 μM final concentration), and the buffer solution with the enzyme was added at the time zero. The inhibitor concentrations were chosen to obtain total inhibition of the enzyme within 20 min. The progress curves show the absorbance of p-nitroanilide produced as a function of time. Initially, no inhibitor is bound to the enzyme, and the tangent to the progress curve (dA/dt) is proportional to the concentration of the free enzyme. The concentration of free enzyme decreases over time due to the kinetics of inhibitor binding, as described above. Progress curves were recorded in pseudofirst-order conditions ([I]0>>[E]0) and with less than 10% conversion of the substrate during the entire time course. In these conditions, dA/dt decreases exponentially with time. The progress curves were fitted with the integrated rate equation to yield a value for kobs, a pseudofirst-order rate constant
At=v0[1−e^−k^obs^t]/kobs+A0
where At=absorbance at time t, A0=absorbance at time zero, and v0=uninhibited initial rate.
The apparent second-order rate constant (kapp) was calculated from the slope of the linear part of the plot of kobs versus the inhibitor concentration ([I]0). In case of competition between the inhibitor and the substrate, kapp is smaller than the “real” second order rate constant k discussed above because a certain fraction of the enzyme is present as an enzyme-substrate complex. kapp depends on the substrate concentration used in the experiment, as described by Lambeir et al.^40 For most final compounds, the kobs versus [I]0 plot was not linear, but could be fitted with a hyperbolic function: kobs=k2[I]0/(K1+[I]0) (two step mechanism). Where K1 is the dissociation constant of the reversible enzyme-inhibitor complex and k2 is the first-order rate constant associated with irreversible modification of the enzyme. A kapp could be calculated as k2/K1.

[3] = target: T2, tPA (recombinant) (Homo sapiens, UniProt P00750); assay: Selectivity: tPA inhibition, substrate Biophen CS-05(88); details: 15 min preincubation; Tris buffer pH 8.3; 1.25 mM substrate
T2 construct: purchased Nodia
T2 sequence (P00750 36-562, species assumed): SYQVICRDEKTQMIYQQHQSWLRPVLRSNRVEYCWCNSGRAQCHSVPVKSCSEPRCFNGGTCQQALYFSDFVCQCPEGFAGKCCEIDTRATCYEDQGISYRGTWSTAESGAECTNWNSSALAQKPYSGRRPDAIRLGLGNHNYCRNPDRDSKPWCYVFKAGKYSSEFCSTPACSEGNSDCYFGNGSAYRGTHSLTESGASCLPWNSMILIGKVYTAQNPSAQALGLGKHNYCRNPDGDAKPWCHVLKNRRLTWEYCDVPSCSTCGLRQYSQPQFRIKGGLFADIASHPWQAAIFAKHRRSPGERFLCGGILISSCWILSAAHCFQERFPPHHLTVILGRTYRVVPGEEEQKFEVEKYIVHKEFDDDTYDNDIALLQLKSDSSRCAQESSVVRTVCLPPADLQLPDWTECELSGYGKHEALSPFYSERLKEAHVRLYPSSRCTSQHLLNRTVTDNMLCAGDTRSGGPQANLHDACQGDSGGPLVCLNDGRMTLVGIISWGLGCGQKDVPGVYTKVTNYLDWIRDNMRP
Protocol: as §1, with “The reaction mixture contained 250 μM substrate and approximately 1 mU of enzyme in 145 μL of buffer in a final volume of 200 μL.” left out
(§3) The IC50 values for plasmin (from human plasma, Sigma), tPA (recombinant, Nodia), thrombin (from human plasma, Sigma), and FXa were determined in the same way as for uPA.
(§4) For tPA and thrombin, Tris buffer, pH 8.3, was used, for FXa, Tris buffer, pH 8.3, for plasmin, Tris buffer, pH 7.4, was used.

[4] = target: T3, thrombin (from human plasma) (Homo sapiens, UniProt P00734); assay: Selectivity: thrombin inhibition, substrate Biophen CS-21(66); details: 15 min preincubation; Tris buffer pH 8.3; 580 μM substrate
T3 construct: thrombin (from human plasma, Sigma); purchased Sigma; host or cells: human plasma
Protocol: as §1, with “The reaction mixture contained 250 μM substrate and approximately 1 mU of enzyme in 145 μL of buffer in a final volume of 200 μL.” left out
as §3, §4

[5] = target: T4, plasmin (from human plasma) (Homo sapiens, UniProt P00747); assay: Selectivity: plasmin inhibition, substrate Biophen CS-21(66); details: 15 min preincubation; Tris buffer pH 7.4; 580 μM substrate
T4 construct: purchased Sigma; host or cells: human plasma
T4 sequence (P00747 581-810 limits assumed): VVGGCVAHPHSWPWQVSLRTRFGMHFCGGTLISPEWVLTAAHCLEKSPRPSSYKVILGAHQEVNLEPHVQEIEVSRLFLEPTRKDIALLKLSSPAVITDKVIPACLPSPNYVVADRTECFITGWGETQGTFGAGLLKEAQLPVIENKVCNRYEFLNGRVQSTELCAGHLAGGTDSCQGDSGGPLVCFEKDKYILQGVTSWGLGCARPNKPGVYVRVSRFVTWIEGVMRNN
T4 sequence (P00747 97-580 partner limits assumed): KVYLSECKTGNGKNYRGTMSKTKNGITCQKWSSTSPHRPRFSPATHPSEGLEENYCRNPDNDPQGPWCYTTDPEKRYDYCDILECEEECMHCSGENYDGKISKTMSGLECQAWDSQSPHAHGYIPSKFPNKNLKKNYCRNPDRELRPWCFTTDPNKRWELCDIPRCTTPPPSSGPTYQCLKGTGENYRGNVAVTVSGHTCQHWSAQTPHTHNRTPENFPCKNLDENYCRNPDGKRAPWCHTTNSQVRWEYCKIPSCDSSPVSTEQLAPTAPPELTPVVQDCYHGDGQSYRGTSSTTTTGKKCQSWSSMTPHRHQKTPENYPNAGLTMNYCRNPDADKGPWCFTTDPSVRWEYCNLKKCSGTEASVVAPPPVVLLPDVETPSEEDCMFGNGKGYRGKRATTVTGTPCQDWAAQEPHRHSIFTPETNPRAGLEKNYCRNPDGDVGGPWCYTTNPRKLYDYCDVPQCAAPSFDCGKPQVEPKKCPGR
Protocol: as §1, with “The reaction mixture contained 250 μM substrate and approximately 1 mU of enzyme in 145 μL of buffer in a final volume of 200 μL.” left out
as §3, §4

[6] = target: FXa (Homo sapiens, UniProt P00742); assay: Selectivity: FXa inhibition, substrate Biophen CS-11(32)
Chain of FXa (P00742 235-488 limits assumed): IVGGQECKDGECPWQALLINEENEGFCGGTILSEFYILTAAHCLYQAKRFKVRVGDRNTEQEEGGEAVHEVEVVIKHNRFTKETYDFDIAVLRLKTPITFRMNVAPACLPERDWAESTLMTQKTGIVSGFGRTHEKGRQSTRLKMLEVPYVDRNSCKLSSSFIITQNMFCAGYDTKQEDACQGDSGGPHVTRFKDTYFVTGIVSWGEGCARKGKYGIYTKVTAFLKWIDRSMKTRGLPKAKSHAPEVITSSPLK
Chain of FXa (P00742 41-179 partner limits assumed): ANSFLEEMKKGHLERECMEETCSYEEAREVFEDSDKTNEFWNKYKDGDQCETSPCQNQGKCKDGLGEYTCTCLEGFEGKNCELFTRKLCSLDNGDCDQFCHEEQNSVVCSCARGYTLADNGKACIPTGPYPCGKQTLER

| SMILES | IC50 [1] [µM] | uPA: kapp ([2]; apparent second-order rate constant from slope of kobs versus [I]0, no asterisk) [M⁻¹ s⁻¹] | IC50 [3] [µM] | IC50 [4] [µM] | IC50 [5] [µM] | IC50 ([6]; 15 min preincubation, Tris buffer pH 8.3, 522 μM substrate) [µM] | uPA: kapp ([2]; asterisked: compound showed a two-step mechanism, kapp calculated as k2/K1) | FXa % (I) @ 250 ([6]; at 250 (μM)) [% @ 250] |
| --- | --- | --- | --- | --- | --- | --- | --- | --- |
| CCN(CC)c1ccc2c(-c3ccccc3C(=O)N3CCN(C(=O)CCCCCCCn4cc(COCCOCCOCCOC(=O)NC(Cc5ccc(NC(=N)N)cc5)P(=O)(Oc5ccccc5)Oc5ccccc5)nn4)CC3)c3ccc(=[N+](CC)CC)cc-3oc2c1 (stereo not drawn) [Final compound 3, 2,2,2-trifluoroacetic acid, N-(6-(diethylamino)-9-(2-(4-(8-(4-(14-(diphenoxyphosphoryl)-15-(4-guanidinophenyl)-12-oxo-2,5,8,11-tetraoxa-13-azapentadecyl)-1H-1,2,3-triazol-1-yl)octanoyl)piperazine-1-carbonyl)phenyl)-3H-xanthen-3-ylidene)-N-ethylethanaminium chloride] | 0.03 ± 0.006 | 2600 ± 200 | 42 ± 5 | 13.8 ± 1.3 | 11 ± 4 | 39 ± 22 |  |  |
| C#CCCCOC(=O)NC(Cc1ccc(NC(=N)N)cc1)P(=O)(Oc1ccc(NC(C)=O)cc1)Oc1ccc(NC(C)=O)cc1 (stereo not drawn) [Intermediate 63, pent-4-ynyl 1-(bis(4-acetamidophenoxy)phosphoryl)-2-(4-guanidinophenyl)ethyl carbamate 2,2,2-trifluoroacetate] | 0.0035 ± 0.0017 |  | 24 ± 4 | 2.1 ± 0.2 | 1.4 ± 0.1 |  | 40 × 10^3 ± 8 × 10^3 * M^−1 s^−1 | 70 |
